According to patent US20130178472A1, “ARYLSULFONAMIDE PYRIDINE-PYRIDINONE DERIVATIVES, PREPARATION OF SAME, AND THERAPEUTIC USE THEREOF” (SANOFI, priority 2010, published 2013):
Structures can show the parent of a compound that is named as a salt.

Structure (SMILES)	melting point [°C]
CCn1c(N)c(C(=O)NC)c(=O)c2ccc(-c3ccc(NS(=O)(=O)Cc4cccnc4)c(F)c3)nc21 (as salt: HCl) [compound No. 1, 2-amino-1-ethyl-7-(3-fluoro-4-{[(pyridin-3-ylmethyl)sulfonyl]amino}phenyl)-N-methyl-4-oxo-1,4-dihydro-1,8-naphthyridine-3-carboxamide]	220 to 223
CCn1c(N)c(C(=O)NC)c(=O)c2ccc(-c3ccc(NS(=O)(=O)CCN(C)C)c(F)c3)nc21 (as salt: HCl) [compound No. 4, 2-amino-7-[4-({[2-(dimethylamino)ethyl]sulfonyl}amino)-3-fluorophenyl]-1-ethyl-N-methyl-4-oxo-1,4-dihydro-1,8-naphthyridine-3-carboxamide]	268 to 270
CCn1c(N)c(C(=O)NC)c(=O)c2ccc(-c3ccc(NS(=O)(=O)Cc4cccc(N)c4)c(F)c3)nc21 (as salt: HCl) [compound No. 5, 2-amino-7-(4-{[(3-aminobenzyl)sulfonyl]amino}-3-fluorophenyl)-1-ethyl-N-methyl-4-oxo-1,4-dihydro-1,8-naphthyridine-3-carboxamide]	> 260
CCn1c(N)c(C(=O)NC)c(=O)c2ccc(-c3ccc(NS(=O)(=O)c4cn(C)cn4)c(F)c3)nc21 (as salt: HCl) [compound No. 6, 2-amino-1-ethyl-7-(3-fluoro-4-{[(1-methyl-1H-imidazol-4-yl)sulfonyl]amino}phenyl)-N-methyl-4-oxo-1,4-dihydro-1,8-naphthyridine-3-carboxamide]	> 300
C=CS(=O)(=O)Nc1ccc(-c2ccc3c(=O)c(C(=O)NC)c(N)n(CC)c3n2)cc1F [compound No. 3, 2-amino-7-{4-[(ethenylsulfonyl)amino]-3-fluorophenyl}-1-ethyl-N-methyl-4-oxo-1,4-dihydro-1,8-naphthyridine-3-carboxamide]	> 260
CCCCS(=O)(=O)Nc1ccc(-c2ccc3c(=O)c(C(=O)NC)c(N)n(CC)c3n2)cc1F [compound No. 7, 2-amino-7-{4-[(butylsulfonyl)amino]-3-fluorophenyl}-1-ethyl-N-methyl-4-oxo-1,4-dihydro-1,8-naphthyridine-3-carboxamide]	165 to 167
CCn1c(N)c(C(=O)NC)c(=O)c2ccc(-c3ccc(NS(=O)(=O)c4c(Cl)cccc4Cl)c(F)c3)nc21 [compound No. 11, 2-amino-7-(4-{[(2,6-dichlorophenyl)sulfonyl]amino}-3-fluorophenyl)-1-ethyl-N-methyl-4-oxo-1,4-dihydro-1,8-naphthyridine-3-carboxamide]	321
CCn1c(N)c(C(=O)NC)c(=O)c2ccc(-c3ccc(NS(=O)(=O)c4cc(Cl)ccc4Cl)cc3Cl)nc21 [compound No. 12, 2-amino-7-(2-chloro-4-{[(2,5-dichlorophenyl)sulfonyl]amino}phenyl)-1-ethyl-N-methyl-4-oxo-1,4-dihydro-1,8-naphthyridine-3-carboxamide]	323

More lines, now with the values ahead:

melting point [°C]	Structure (SMILES)
> 260	CCn1c(N)c(C(=O)NC)c(=O)c2ccc(-c3ccc(NS(=O)(=O)c4ccc(N5CCOCC5)nc4)c(F)c3)nc21 (as salt: HCl) [compound No. 26, 2-amino-1-ethyl-7-[3-fluoro-4-({[6-(morpholin-4-yl)pyridin-3-yl]sulfonyl}amino)phenyl]-N-methyl-4-oxo-1,4-dihydro-1,8-naphthyridine-3-carboxamide]
260	CCn1c(N)c(C(=O)NC)c(=O)c2ccc(-c3ccc(NS(=O)(=O)Cc4ccccn4)c(F)c3)nc21 (as salt: HCl) [compound No. 27, 2-amino-1-ethyl-7-(3-fluoro-4-{[(pyridin-2-ylmethyl)sulfonyl]amino}phenyl)-N-methyl-4-oxo-1,4-dihydro-1,8-naphthyridine-3-carboxamide]
239	CCn1c(N)c(C(=O)NC)c(=O)c2ccc(-c3ccc(NS(=O)(=O)c4cccc(Cl)c4Cl)cc3Cl)nc21 [compound No. 13, 2-amino-7-(2-chloro-4-{[(2,3-dichlorophenyl)sulfonyl]amino}phenyl)-1-ethyl-N-methyl-4-oxo-1,4-dihydro-1,8-naphthyridine-3-carboxamide]
299	CCn1c(N)c(C(=O)NC)c(=O)c2ccc(-c3ccc(NS(=O)(=O)c4cccc(Cl)c4Cl)c(C)c3)nc21 [compound No. 15, 2-amino-7-(4-{[(2,3-dichlorophenyl)sulfonyl]amino}-3-methylphenyl)-1-ethyl-N-methyl-4-oxo-1,4-dihydro-1,8-naphthyridine-3-carboxamide]
> 300	CCn1c(N)c(C(=O)NC)c(=O)c2ccc(-c3ccc(NS(C)(=O)=O)cc3)nc21 [compound No. 16, 2-amino-1-ethyl-N-methyl-7-{4-[(methylsulfonyl)amino]phenyl}-4-oxo-1,4-dihydro-1,8-naphthyridine-3-carboxamide]
210	CCn1c(N)c(C(=O)NC)c(=O)c2ccc(-c3ccc(NS(=O)(=O)c4cccc(Cl)c4Cl)cc3)nc21 [compound No. 17, 2-amino-7-(4-{[(2,3-dichlorophenyl)sulfonyl]amino}phenyl)-1-ethyl-N-methyl-4-oxo-1,4-dihydro-1,8-naphthyridine-3-carboxamide]
> 260	CCn1c(N)c(C(=O)NC)c(=O)c2ccc(-c3ccc(NS(=O)(=O)c4ccccc4Cl)cc3)nc21 [compound No. 19, 2-amino-7-(4-{[(2-chlorophenyl)sulfonyl]amino}phenyl)-1-ethyl-N-methyl-4-oxo-1,4-dihydro-1,8-naphthyridine-3-carboxamide]
> 260	CCn1c(N)c(C(=O)NC)c(=O)c2ccc(-c3ccc(NS(=O)(=O)c4ccc(Cl)cc4)c(F)c3)nc21 [compound No. 21, 2-amino-7-(4-{[(4-chlorophenyl)sulfonyl]amino}-3-fluorophenyl)-1-ethyl-N-methyl-4-oxo-1,4-dihydro-1,8-naphthyridine-3-carboxamide]
> 260	CCn1c(N)c(C(=O)NC)c(=O)c2ccc(-c3ccc(NS(=O)(=O)c4cccc(Cl)c4)c(F)c3)nc21 [compound No. 22, 2-amino-7-(4-{[(3-chlorophenyl)sulfonyl]amino}-3-fluorophenyl)-1-ethyl-N-methyl-4-oxo-1,4-dihydro-1,8-naphthyridine-3-carboxamide]
> 260	CCn1c(N)c(C(=O)NC)c(=O)c2ccc(-c3ccc(NS(=O)(=O)c4ccc(F)c(F)c4)c(F)c3)nc21 [compound No. 23, 2-amino-7-(4-{[(3,4-difluorophenyl)sulfonyl]amino}-3-fluorophenyl)-1-ethyl-N-methyl-4-oxo-1,4-dihydro-1,8-naphthyridine-3-carboxamide]
> 260	CCn1c(N)c(C(=O)NC)c(=O)c2ccc(-c3ccc(NS(=O)(=O)c4cccc(OC)c4)c(F)c3)nc21 [compound No. 25, 2-amino-1-ethyl-7-(3-fluoro-4-{[(3-methoxyphenyl)sulfonyl]amino}phenyl)-N-methyl-4-oxo-1,4-dihydro-1,8-naphthyridine-3-carboxamide]
